In patent US11345711B2, “8,9-dihydroimidazo[1,2-a]pyrimido[5,4-e]pyrimidin-5(6H)-ones” (IMPACT THERAPEUTICS (SHANGHAI), INC, priority 2016, dated 2022):
pIC50: −log10 of the molar value. Like-named read-outs stand apart in the source and are kept apart here.

Tests used:
LoVo cells = assay: MTT based cell viability assay on LoVo cells; conditions: Homo sapiens, LoVo, 72 h, 3 d, read-out: IC50, growth inhibition of LoVo cells
How it was run: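 Inhibition of LoVo proliferation was derived as IC50 from a sigmoidal dose-response fit of cell survival. Readout was MTT (0.5 mg/mL, 4 h) with absorbance at 552/630/690 nm, after 3-day treatment at 37 °C. Eight-point series from 10 μM to 0.01 μM, DMSO control, 1% DMSO final.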

NCI-H1299 cells = assay: MTT based cell viability assay on NCI-H1299 cells; conditions: read-out: IC50, growth inhibition of NCI-H1299 cells
How it was run: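 NCI-H1299 cells (1000/well, settled overnight) were exposed for 3 d at 37 °C, 5% CO2, to an eight-point series of 10 μM to 0.01 μM plus DMSO blank, as prepared in DMSO (final DMSO 1‰). MTT (0.5 mg/mL, 4 h) was read at 552/630/690 nm. IC50 came from sigmoidal dose-response fits of survival.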

Wee1 (h) = Wee1 (h) (Homo sapiens, UniProt P30291); assay: Wee1 kinase (h) detection method, [γ-33P]-ATP filter assay; type: biochemical
[1] = Homo sapiens, NCI-H1299, NCI-H1299 cells

Chain of Wee1 (h) (P30291 whole entry): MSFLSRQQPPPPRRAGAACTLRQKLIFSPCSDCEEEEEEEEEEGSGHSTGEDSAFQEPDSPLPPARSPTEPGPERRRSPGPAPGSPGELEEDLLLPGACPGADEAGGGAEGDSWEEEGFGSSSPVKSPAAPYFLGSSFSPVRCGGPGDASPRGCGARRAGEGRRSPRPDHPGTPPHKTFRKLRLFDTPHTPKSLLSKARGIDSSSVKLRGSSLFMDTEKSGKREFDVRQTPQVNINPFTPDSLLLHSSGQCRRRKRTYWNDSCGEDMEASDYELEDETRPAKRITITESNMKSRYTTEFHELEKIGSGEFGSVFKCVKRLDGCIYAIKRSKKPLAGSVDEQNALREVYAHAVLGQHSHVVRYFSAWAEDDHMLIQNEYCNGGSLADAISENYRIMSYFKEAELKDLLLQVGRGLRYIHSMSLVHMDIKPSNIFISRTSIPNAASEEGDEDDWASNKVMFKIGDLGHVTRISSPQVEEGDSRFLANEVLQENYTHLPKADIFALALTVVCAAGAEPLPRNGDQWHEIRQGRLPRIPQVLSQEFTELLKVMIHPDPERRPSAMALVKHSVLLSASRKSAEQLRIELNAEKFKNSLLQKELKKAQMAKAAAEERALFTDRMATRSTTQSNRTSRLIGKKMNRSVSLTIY

SMILES | pIC50 (LoVo cells) | pIC50 (NCI-H1299 cells; Homo sapiens, NCI-H1299 cells) | Inh. (%) of Wee1 kinase enzyme activity (Wee1 (h); C 0.01 μm compound) | Inh. (%) of Wee1 kinase enzyme activity (Wee1 (h); C 0.1 μm compound) | Inh. (%) of Wee1 kinase enzyme activity (Wee1 (h); C 1 μm compound) | pIC50 (NCI-H1299 cells; [1]) | pIC50 (NCI-H1299 cells; NCI-H1299 cells)
CN1CCN(c2ccc(Nc3ncc4c(n3)N3CCN=C3N(c3c(F)cccc3Cl)C4=O)cn2)CC1 [Example 57, 6-(2-Chloro-6-fluorophenyl)-2-((6-(4-methylpiperazin-1-yl)pyridin-3-yl)amino)-8,9-dihydroimidazo[1,2-a]pyrimido[5,4-e]pyrimidin-5(6H)-one] | 4.87 | < 5.00 | 36% | 80% | 89% |  | 
CC(C)N1Cc2cc(Nc3ncc4c(n3)N3CCN=C3N(c3c(F)cccc3Cl)C4=O)ccc2C2(CC2)C1 [Example 58, 6-(2-Chloro-6-fluorophenyl)-2-((2′-isopropyl-2′,3′-dihydro-1′H-spiro[cyclopropane-1,4′-isoquinolin]-7′-yl)amino)-8,9-dihydroimidazo[1,2-a]pyrimido[5,4-e]pyrimidin-5(6H)-one] | 7.05 | 6.37 | 46% | 92% | 100% |  | 
CN1CCn2nc(Nc3ncc4c(n3)N3CCN=C3N(c3c(F)cccc3Cl)C4=O)cc2C1 [Example 59, 6-(2-Chloro-6-fluorophenyl)-2-((5-methyl-4,5,6,7-tetrahydropyrazolo[1,5-a]pyrazin-2-yl)amino)-8,9-dihydroimidazo[1,2-a]pyrimido[5,4-e]pyrimidin-5(6H)-one] | < 4.00 | < 5.00 |  |  | 49% |  | 
Cc1cc(Nc2ncc3c(n2)N2CCN=C2N(c2c(F)cccc2F)C3=O)ccc1N1CCN(C)CC1 [Example 60, 6-(2,6-Difluorophenyl)-2-((3-methyl-4-(4-methylpiperazin-1-yl)phenyl)amino)-8,9-dihydroimidazo[1,2-a]pyrimido[5,4-e]pyrimidin-5(6H)-one] | 6.80 | 6.00 | 15% | 71% | 91% |  | 
Cc1cc(Nc2ncc3c(n2)N2CCN=C2N(c2c(F)cccc2C(F)(F)F)C3=O)ccc1N1CCN(C)CC1 [Example 61, 6-(2-Fluoro-6-(trifluoromethyl)phenyl)-2-((3-methyl-4-(4-methylpiperazin-1-yl)phenyl)amino)-8,9-dihydroimidazo[1,2-a]pyrimido[5,4-e]pyrimidin-5(6H)-one] | 6.12 | 5.91 |  |  | 82% |  | 
Cc1cc(Nc2ncc3c(n2)N2CCN=C2N(c2c(C)cccc2F)C3=O)ccc1N1CCN(C)CC1 [Example 62, 6-(2-Fluoro-6-methylphenyl)-2-((3-methyl-4-(4-methylpiperazin-1-yl)phenyl)amino)-8,9-dihydroimidazo[1,2-a]pyrimido[5,4-e]pyrimidin-5(6H)-one] | 6.71 | 6.03 |  |  | 83% |  | 

The next lines start with the values.

pIC50 (LoVo cells) | pIC50 (NCI-H1299 cells; Homo sapiens, NCI-H1299 cells) | Inh. (%) of Wee1 kinase enzyme activity (Wee1 (h); C 0.01 μm compound) | Inh. (%) of Wee1 kinase enzyme activity (Wee1 (h); C 0.1 μm compound) | Inh. (%) of Wee1 kinase enzyme activity (Wee1 (h); C 1 μm compound) | pIC50 (NCI-H1299 cells; [1]) | pIC50 (NCI-H1299 cells; NCI-H1299 cells) | SMILES
7.11 | 6.44 | 17% | 76% | 99% |  |  | CC(C)N1CCN(c2ccc(Nc3ncc4c(n3)N3CCN=C3N(c3c(Cl)cccc3Cl)C4=O)cc2)CC1 [Example 63, 6-(2,6-Dichlorophenyl)-2-((4-(4-isopropylpiperazin-1-yl)phenyl)amino)-8,9-dihydroimidazo[1,2-a]pyrimido[5,4-e]pyrimidin-5(6H)-one]
7.02 | 6.75 | 52% | 88% | 100% |  |  | C[C@@H]1CN(c2ccc(Nc3ncc4c(n3)N3CCN=C3N(c3c(Cl)cccc3Cl)C4=O)cc2)C[C@H](C)N1C [Example 64, 6-(2,6-Dichlorophenyl)-2-((4-((3S,5R)-3,4,5-trimethylpiperazin-1-yl)phenyl)amino)-8,9-dihydroimidazo[1,2-a]pyrimido[5,4-e]pyrimidin-5(6H)-one]
6.99 | 6.39 | 18% | 68% | 98% |  |  | CC(C)N1[C@H](C)CN(c2ccc(Nc3ncc4c(n3)N3CCN=C3N(c3c(Cl)cccc3Cl)C4=O)cc2)C[C@@H]1C [Example 65, 6-(2,6-Dichlorophenyl)-2-((4-((3S,5R)-4-isopropyl-3,5-dimethylpiperazin-1-yl)phenyl)amino)-8,9-dihydroimidazo[1,2-a]pyrimido[5,4-e]pyrimidin-5(6H)-one]
< 4.00 | < 5.00 |  |  | 0% |  |  | C[C@@H]1CN(c2ccc(Nc3ncc4c(n3)N3CCN=C3N(c3c(Cl)cccc3Cl)C4=O)c(F)c2)C[C@H](C)N1C [Example 66, 6-(2,6-Dichlorophenyl)-2-((2-fluoro-4-((3S,5R)-3,4,5-trimethylpiperazin-1-yl)phenyl)amino)-8,9-dihydroimidazo[1,2-a]pyrimido[5,4-e]pyrimidin-5(6H)-one]
< 4.00 | < 5.00 |  |  | 24% |  |  | C[C@@H]1CN(c2ccc(Nc3ncc4c(n3)N3CCN=C3N(c3c(Cl)cccc3Cl)C4=O)c(Cl)c2)C[C@H](C)N1C [Example 67, 6-(2,6-Dichlorophenyl)-2-((2-chloro-4-((3S,5R)-3,4,5-trimethylpiperazin-1-yl)phenyl)amino)-8,9-dihydroimidazo[1,2-a]pyrimido[5,4-e]pyrimidin-5(6H)-one]
< 4.00 | < 5.00 |  |  | 6% |  |  | C[C@@H]1CN(c2ccc(Nc3ncc4c(n3)N3CCN=C3N(c3c(Cl)cccc3Cl)C4=O)c(C(F)(F)F)c2)C[C@H](C)N1C [Example 68, 6-(2,6-Dichlorophenyl)-2-((2-trifluoromethyl-4-((3S,5R)-3,4,5-trimethylpiperazin-1-yl)phenyl)amino)-8,9-dihydroimidazo[1,2-a]pyrimido[5,4-e]pyrimidin-5(6H)-one]
6.98 |  | 24% | 73% | 97% | 6.37 |  | CN1CCN(c2ccc(Nc3ncc4c(n3)N3CCN=C3N(c3c(Cl)cccc3Cl)C4=O)cc2F)CC1 [Example 69, 6-(2,6-Dichlorophenyl)-2-((3-fluoro-4-(4-methylpiperazin-1-yl)phenyl)amino)-8,9-dihydroimidazo[1,2-a]pyrimido[5,4-e]pyrimidin-5(6H)-one]
6.91 |  | 17% | 69% | 99% | 6.35 |  | C[C@@H]1CN(c2ccc(Nc3ncc4c(n3)N3CCN=C3N(c3c(Cl)cccc3Cl)C4=O)cc2F)C[C@H](C)N1C [Example 70, 6-(2,6-Dichlorophenyl)-2-((3-fluoro-4-((3S,5R)-3,4,5-trimethylpiperazin-1-yl)phenyl)amino)-8,9-dihydroimidazo[1,2-a]pyrimido[5,4-e]pyrimidin-5(6H)-one]
7.35 |  | 36% | 74% | 98% |  | 6.22 | CN1CCN(c2ccc(Nc3ncc4c(n3)N3CCN=C3N(c3c(Cl)cccc3Cl)C4=O)cc2Cl)CC1 [Example 71, 2-((3-chloro-4-(4-methylpiperazin-1-yl)phenyl)amino)-6-(2,6-dichlorophenyl)-8,9-dihydroimidazo[1,2-a]pyrimido[5,4-e]pyrimidin-5(6H)-one]
